Results as given in ChEMBL document CHEMBL4689842, “EUbOPEN Chemogenomics Library wave 1” (2021).

What was measured:
Format in all cases: toxicity, cell-based
U2OS = assay: Incucyte cell viability with U2OS; details: human, 10 µM, compound concentration 10 uM
HEK-293T = assay: Incucyte cell viability with HEK293T; details: human, 10 µM, compound concentration 10 uM
Fibroblast = assay: Incucyte cell viability with human fibroblast; details: 10 µM, compound concentration 10 uM
[1] = 0 h, replicate number 2, timepoint 0 hours
[2] = 6 h, replicate number 2, timepoint 6 hours
[3] = 12 h, replicate number 1, timepoint 12 hours
[4] = 18 h, replicate number 1, timepoint 18 hours
[5] = 24 h, replicate number 1, timepoint 24 hours
[6] = 0 h, replicate number 1, timepoint 0 hours
[7] = 6 h, replicate number 1, timepoint 6 hours
Note: filed as whole numbers so only -1 and 0 and 1 occur.

## O=C1NCN(c2ccccc2)C12CCN(CC1COc3ccccc3O1)CC2 (stereo not given) [SPIROXATRINE]
U2OS; [1]
  Growth Rate: 0
U2OS; [2]
  Growth Rate: 1
U2OS; [3]
  Growth Rate: 1
U2OS; [4]
  Growth Rate: 1
U2OS; [5]
  Growth Rate: 1
HEK-293T; [6]
  Growth Rate: 1
HEK-293T; [1]
  Growth Rate: 0
HEK-293T; [7]
  Growth Rate: 0
HEK-293T; [3]
  Growth Rate: 0
HEK-293T; [4]
  Growth Rate: 0
HEK-293T; [5]
  Growth Rate: 0
Fibroblast; [6]
  Growth Rate: 0
Fibroblast; [1]
  Growth Rate: 1
Fibroblast; [7]
  Growth Rate: 1
Fibroblast; [2]
  Growth Rate: 0
Fibroblast; [3]
  Growth Rate: 1
Fibroblast; 12 h, replicate number 2, timepoint 12 hours
  Growth Rate: 0
Fibroblast; [4]
  Growth Rate: 0
Fibroblast; [5]
  Growth Rate: 1
Fibroblast; 24 h, replicate number 2, timepoint 24 hours
  Growth Rate: 0
